The values that follow come from paper PMC2151519 (The Journal of General Physiology, 2006).

Targets include TRPM7 (Mus musculus, UniProt Q923J1); TRPM6 (Homo sapiens, UniProt Q9BX84); TRPM6/7 (Homo sapiens; Mus musculus, UniProt Q923J1+Q9BX84).
Common to all, as to experiment: whole-cell patch clamp, outward current, CHO-K1
Holding throughout (assay type): cell-based

Sequence of TRPM7 (Q923J1 whole entry): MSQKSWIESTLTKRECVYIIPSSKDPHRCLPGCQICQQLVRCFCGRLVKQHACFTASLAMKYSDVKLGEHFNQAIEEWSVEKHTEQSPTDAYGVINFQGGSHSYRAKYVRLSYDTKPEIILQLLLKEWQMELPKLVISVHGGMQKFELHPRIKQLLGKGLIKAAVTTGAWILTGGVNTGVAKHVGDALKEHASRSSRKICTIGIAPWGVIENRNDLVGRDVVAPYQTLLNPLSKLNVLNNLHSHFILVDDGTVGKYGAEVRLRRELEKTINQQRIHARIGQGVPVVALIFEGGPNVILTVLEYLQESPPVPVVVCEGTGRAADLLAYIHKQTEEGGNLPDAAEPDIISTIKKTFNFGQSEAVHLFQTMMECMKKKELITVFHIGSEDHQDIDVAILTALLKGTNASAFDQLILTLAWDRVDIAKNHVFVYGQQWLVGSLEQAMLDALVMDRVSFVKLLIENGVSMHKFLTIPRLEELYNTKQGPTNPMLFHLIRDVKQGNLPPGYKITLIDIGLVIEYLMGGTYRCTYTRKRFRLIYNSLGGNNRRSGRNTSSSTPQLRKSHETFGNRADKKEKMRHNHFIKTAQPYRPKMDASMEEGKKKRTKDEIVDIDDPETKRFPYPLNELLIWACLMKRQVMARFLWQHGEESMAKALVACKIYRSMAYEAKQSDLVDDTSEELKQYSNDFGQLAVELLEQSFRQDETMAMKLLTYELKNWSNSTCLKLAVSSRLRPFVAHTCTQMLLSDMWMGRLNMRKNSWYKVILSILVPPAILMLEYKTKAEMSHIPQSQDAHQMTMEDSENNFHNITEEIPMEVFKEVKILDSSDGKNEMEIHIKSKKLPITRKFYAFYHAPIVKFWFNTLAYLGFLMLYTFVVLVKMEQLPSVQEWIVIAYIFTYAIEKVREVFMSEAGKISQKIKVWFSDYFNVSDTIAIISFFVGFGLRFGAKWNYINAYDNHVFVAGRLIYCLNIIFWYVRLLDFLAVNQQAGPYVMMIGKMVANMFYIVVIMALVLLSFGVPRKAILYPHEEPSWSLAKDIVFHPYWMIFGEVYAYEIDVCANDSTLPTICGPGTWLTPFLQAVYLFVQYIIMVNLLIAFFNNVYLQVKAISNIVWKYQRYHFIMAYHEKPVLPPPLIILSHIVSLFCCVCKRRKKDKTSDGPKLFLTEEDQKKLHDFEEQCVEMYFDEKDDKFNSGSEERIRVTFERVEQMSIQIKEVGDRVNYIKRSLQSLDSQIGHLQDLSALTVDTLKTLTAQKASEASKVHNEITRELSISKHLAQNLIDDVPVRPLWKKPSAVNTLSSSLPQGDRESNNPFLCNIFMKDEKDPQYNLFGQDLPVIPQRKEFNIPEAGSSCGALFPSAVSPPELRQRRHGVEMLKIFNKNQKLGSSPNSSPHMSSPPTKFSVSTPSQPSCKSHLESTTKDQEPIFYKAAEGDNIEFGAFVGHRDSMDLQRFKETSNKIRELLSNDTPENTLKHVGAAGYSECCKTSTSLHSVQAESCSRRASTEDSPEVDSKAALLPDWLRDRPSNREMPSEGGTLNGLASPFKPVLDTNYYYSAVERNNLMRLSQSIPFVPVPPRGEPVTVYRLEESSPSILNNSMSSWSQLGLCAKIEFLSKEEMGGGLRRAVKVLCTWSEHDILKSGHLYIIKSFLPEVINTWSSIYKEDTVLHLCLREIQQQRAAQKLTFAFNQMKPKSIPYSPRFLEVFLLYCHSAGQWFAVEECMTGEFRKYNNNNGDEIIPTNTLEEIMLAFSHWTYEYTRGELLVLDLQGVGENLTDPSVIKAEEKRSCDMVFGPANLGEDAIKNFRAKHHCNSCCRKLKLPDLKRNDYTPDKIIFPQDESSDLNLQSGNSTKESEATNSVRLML
Sequence of TRPM6 (Q9BX84 whole entry): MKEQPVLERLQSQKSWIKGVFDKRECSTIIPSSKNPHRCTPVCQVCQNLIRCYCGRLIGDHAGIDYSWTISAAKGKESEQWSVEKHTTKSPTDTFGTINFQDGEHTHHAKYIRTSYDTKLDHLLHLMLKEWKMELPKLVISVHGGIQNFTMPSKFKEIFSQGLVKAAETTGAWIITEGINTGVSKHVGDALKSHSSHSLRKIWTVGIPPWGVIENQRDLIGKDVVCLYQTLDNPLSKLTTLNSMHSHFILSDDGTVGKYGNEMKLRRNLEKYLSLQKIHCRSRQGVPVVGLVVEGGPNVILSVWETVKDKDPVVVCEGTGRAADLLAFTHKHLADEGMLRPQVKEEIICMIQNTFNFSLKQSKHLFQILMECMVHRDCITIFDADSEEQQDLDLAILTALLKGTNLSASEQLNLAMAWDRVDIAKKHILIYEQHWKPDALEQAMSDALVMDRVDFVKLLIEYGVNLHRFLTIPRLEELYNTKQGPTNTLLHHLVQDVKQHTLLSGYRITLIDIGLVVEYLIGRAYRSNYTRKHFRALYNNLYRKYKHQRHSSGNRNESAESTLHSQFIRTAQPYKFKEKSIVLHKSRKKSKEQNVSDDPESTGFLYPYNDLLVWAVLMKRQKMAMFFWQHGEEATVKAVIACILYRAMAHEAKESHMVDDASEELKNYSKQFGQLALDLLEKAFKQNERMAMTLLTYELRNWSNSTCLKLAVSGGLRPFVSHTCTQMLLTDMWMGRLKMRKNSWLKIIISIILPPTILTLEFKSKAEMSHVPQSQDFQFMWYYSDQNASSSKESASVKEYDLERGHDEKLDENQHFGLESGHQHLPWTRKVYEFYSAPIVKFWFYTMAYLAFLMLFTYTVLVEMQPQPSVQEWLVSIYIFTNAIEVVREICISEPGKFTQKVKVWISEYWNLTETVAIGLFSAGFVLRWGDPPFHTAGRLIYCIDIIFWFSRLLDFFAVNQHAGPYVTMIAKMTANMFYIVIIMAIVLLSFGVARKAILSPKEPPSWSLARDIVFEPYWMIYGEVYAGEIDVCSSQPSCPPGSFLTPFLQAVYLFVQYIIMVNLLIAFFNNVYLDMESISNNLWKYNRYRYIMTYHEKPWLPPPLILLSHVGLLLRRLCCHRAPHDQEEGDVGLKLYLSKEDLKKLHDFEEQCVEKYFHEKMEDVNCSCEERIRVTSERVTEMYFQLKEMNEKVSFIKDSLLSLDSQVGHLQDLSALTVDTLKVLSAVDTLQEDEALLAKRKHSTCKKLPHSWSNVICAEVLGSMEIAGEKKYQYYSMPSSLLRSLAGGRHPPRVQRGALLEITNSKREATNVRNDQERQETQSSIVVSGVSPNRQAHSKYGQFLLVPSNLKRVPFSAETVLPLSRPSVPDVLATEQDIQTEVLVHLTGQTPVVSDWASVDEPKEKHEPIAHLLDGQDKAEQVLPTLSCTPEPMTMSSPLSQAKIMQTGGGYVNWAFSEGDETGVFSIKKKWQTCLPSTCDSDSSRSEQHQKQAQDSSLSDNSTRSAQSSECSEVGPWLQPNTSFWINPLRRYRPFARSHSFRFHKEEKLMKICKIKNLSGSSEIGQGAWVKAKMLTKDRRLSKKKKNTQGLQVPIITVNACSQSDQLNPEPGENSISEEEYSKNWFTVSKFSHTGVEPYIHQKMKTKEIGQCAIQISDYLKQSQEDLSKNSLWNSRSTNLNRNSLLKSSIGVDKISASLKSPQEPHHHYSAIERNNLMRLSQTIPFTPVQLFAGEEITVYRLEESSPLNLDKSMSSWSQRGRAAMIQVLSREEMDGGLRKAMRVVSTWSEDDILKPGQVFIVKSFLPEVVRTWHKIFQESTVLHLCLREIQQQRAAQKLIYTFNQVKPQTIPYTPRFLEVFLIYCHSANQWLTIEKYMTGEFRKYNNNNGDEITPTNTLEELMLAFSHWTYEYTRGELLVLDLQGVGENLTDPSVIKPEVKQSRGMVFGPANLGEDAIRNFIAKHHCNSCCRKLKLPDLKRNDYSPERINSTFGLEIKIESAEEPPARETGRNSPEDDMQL
Sequence of TRPM6/7 (Q9BX84 whole entry): as above
Sequence of TRPM6/7 (Q923J1 whole entry): as the sequence (Q923J1 whole entry) above

The IC50 is the point on the concentration scale where inhibition reaches its midpoint. Lower therefore signals greater potency. As usually defined, the EC50 is the concentration at which the effect is half-maximal. A low value points to greater potency. `NCCOB(c1ccccc1)c1ccccc1` [2-APB] yielded an IC50 against TRPM7 of 178 ± 14 µM. Moreover, the EC50 was determined as 205 ± 10 µM at TRPM6 and 1600 ± 100 µM at TRPM6/7.
